Results as given in paper PMC11856932, “Aeromonas hydrophila CobQ is a new type of NAD^+- and Zn^2+-independent protein lysine deacetylase” (eLife, 2025).

What was measured:
Assay type in all cases: biochemical
ICD = target: T1, ICD (Aeromonas hydrophila, UniProt A0KI74); assay: NADPH formation, absorbance at […] nm; conditions: 0.5 mM NADP, 1.5 mM isocitrate, 3 mM MgCl2, 100 mM Tris-HCl pH 8.0, 10% glycerol
T1 construct: recombinant, pET-21b vector, E. coli BL21(DE3), Ni-NTA purified; non-acetylated form
T1 sequence (A0KI74 1-417): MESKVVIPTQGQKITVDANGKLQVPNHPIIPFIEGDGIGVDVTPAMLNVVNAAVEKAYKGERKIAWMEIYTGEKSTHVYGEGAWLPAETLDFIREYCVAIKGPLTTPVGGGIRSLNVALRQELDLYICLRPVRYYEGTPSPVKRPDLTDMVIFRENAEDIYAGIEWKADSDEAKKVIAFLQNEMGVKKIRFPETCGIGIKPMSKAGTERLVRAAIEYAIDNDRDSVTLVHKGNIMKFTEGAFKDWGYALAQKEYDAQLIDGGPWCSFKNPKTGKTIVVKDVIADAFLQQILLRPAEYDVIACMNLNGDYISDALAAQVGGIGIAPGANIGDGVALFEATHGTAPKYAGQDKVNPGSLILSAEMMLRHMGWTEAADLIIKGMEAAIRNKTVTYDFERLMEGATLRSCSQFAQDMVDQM

AhCobB [1] = target: T2, AhCobB (Aeromonas hydrophila, UniProt A0KKN9); assay: deacetylation of Kac-BSA, anti-Kac western blot; conditions: 0.25 mM NAD+ as co-substrate; 150 mM Tris-HCl pH 8.0, 10% glycerol, 37 °C, 3 h
T2 construct: gene cobB; recombinant, pET-21b/32a vector, E. coli BL21(DE3), Ni-NTA purified
T2 sequence (A0KKN9 1-257): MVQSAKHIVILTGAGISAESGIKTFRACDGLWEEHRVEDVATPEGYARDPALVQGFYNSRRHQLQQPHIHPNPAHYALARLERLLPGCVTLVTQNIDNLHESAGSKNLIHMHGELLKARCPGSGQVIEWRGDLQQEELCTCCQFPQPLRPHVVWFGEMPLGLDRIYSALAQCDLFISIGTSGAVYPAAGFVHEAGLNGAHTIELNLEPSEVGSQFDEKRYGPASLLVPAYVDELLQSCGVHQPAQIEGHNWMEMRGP

AhCobB [2] = target: T2, AhCobB; assay: deacetylation of Kac-BSA, anti-Kac western blot; conditions: 0.5 mM NAM; 150 mM Tris-HCl pH 8.0, 10% glycerol, 37 °C, 3 h; inhibitor

Question: With NC(=O)c1ccc[n+]([C@@H]2O[C@H](COP(=O)(O)OP(=O)(O)OC[C@H]3O[C@@H](n4cnc5c(N)ncnc54)[C@H](OP(=O)(O)O)[C@@H]3O)[C@@H](O)[C@H]2O)c1 [NADP^+] as the compound, how does the “NADPH formation, absorbance at 340 nm” value (ICD) read?
Answer: The enzymatic activity of ICD was detected by measuring the amount of NADPH generated

Question: Which “deacetylation of Kac-BSA, anti-Kac western blot” value (AhCobB [1]) does the source give for NC(=O)c1ccc[n+]([C@@H]2O[C@H](COP(=O)(O)OP(=O)(O)OC[C@H]3O[C@@H](n4cnc5c(N)ncnc54)[C@H](O)[C@@H]3O)[C@@H](O)[C@H]2O)c1 [NAD^+] here?
Answer: AhCobB and AhAcuC significantly deacetylated Kac-BSA in the presence of NAD^+ or Zn2 ^+ buffer

Question: NC(=O)c1cccnc1 [nicotinamide] was tested. Which inhibition (AhCobB [2]) did it give?
Answer: the KDAC activity of AhCobB was inhibited when the sirtuin inhibitor nicotinamide (NAM) was added
